Measurements: patent EP4678627A1, “NOVEL FERROPTOSIS INHIBITORS” (Universiteit Antwerpen, priority 2024, dated 2026)

Assay: Human liver microsomal stability
Conditions: Corning ultra pool human liver microsome (HLM), NADPH, 1 µM, 0.5 mg/ml protein

In the case of COc1ccc2c(c1)[C@]13CCCC[C@@H]1[C@H](C2)N(C)CC3 [Dextromethorphan], the “Microsomal stability in human t1/2” value is reported as 40.0 min.
